Molecular target: T1, ligand binding domain of human type PPARα fused with DNA-binding domain of GAL4 (Homo sapiens, UniProt Q07869)
T1 construct: expressed in transfected cells; host or cells: CHO cells
T1 sequence (Q07869 239-466 limits assumed): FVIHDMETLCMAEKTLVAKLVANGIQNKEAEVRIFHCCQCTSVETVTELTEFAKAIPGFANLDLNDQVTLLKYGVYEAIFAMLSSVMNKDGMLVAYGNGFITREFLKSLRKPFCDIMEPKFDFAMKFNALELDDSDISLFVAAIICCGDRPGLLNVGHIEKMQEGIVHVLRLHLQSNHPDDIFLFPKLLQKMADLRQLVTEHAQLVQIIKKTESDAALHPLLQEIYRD
Assay: Test of transcriptional activation on peroxisome proliferator-activated receptor α (GAL4 chimera luciferase reporter in CHO cells)
Assay type: cell-based
Settings: CHO cells cotransfected with GAL4-human PPARα LBD receptor plasmid and luciferase reporter; luciferase activity after 24 hours
Source text: Test of transcriptional activation on peroxisome proliferator-activated receptors α and γ
To CHO cells cultured in a Ham's F-12 medium with 10% fetal calf serum, receptor plasmid that expresses fused protein of DNA-binding domain of GAL4 being transcription factor of yeast with ligand binding domain of human type PPARs α and γ (Biochemistry, 1993, 32, 5598), firefly luciferase reporter plasmid (Promega Corp.) that is activated by GAL4 and sea shiitake mushroom luciferase plasmid (Promega Corp.) for internal standard were cotransfected with lipofectamine. Thereafter, testing compound dissolved into dimethyl sulfoxide (DMSO) (final concentration of DMSO 0.1%) and control drug were adjusted with Ham's F-12 medium containing 10% defatted fetal calf serum to culture. After 24 hours, the luciferase activity was measured.

Row | SMILES | EC50
1 | CCCCC/C=C\C/C=C\C=C\[C@@H](O)C/C=C\CCCC(=O)O [(8S)-HETE, 8-hydroxyeicosatetraenoic acid, reference compound] | 1.3 µM
2 | COc1ccc(CC(SC)C(N)=O)cc1C(=O)NCc1ccc(C(F)(F)F)cc1 (stereo not shown) [Example 3, 5-[2-Carbamoyl-2-(methylthio)ethyl]-2-methoxy-N-(4-trifluoromethylbenzyl)benzamide] | 2.1 µM
3 | COc1ccc(CC(SC)C(=O)O)cc1C(=O)NCc1ccc(C(F)(F)F)cc1 (stereo not shown) [Example 7, 3-[4-Methoxy-3-[N-(4-trifluoromethylbenzyl)]carbamoylphenyl]-2-(methylthio)propionic acid] | 1.2 µM

System: not given
Assay: not given
Settings: not given

Row | SMILES | melting point
4 | COc1ccc(C(=O)O)cc1C(=O)NCc1ccc(C(F)(F)F)cc1 [Example 1, 4-Methoxy-3-[N-(4-trifluoromethylbenzyl)carbamoyl]benzoic acid] | 235.5 to 236.5 °C
5 | COc1ccc(CC(=O)O)cc1C(=O)NCc1ccc(C(F)(F)F)cc1 [Example 2, 4-Methoxy-3-[N-(4-trifluoromethylbenzyl)]carbamoylphenylacetic acid] | 167 to 168 °C
6 | COc1ccc(CC(SC)C(N)=O)cc1C(=O)NCc1ccc(C(F)(F)F)cc1 (stereo not shown) [Example 3, 5-[2-Carbamoyl-2-(methylthio)ethyl]-2-methoxy-N-(4-trifluoromethylbenzyl)benzamide] | 152.5 to 153.5 °C
7 | COc1ccc(CC(C(N)=O)[S+](C)[O-])cc1C(=O)NCc1ccc(C(F)(F)F)cc1 (stereo not shown) [Example 4, 5-[2-Carbamoyl-2-(methylsulfinyl)ethyl]-2-methoxy-N-(4-trifluoromethylbenzyl)benzamide] | 170 to 171 °C
8 | COc1ccc(CC(C(N)=O)S(C)(=O)=O)cc1C(=O)NCc1ccc(C(F)(F)F)cc1 (stereo not shown) [Example 5, 5-[2-Carbamoyl-2-(methylsulfonyl)ethyl]-2-methoxy-N-(4-trifluoromethylbenzyl)benzamide] | 219 to 220 °C
9 | COc1ccc(CC(S)C(N)=O)cc1C(=O)NCc1ccc(C(F)(F)F)cc1 (stereo not shown) [Example 6, 5-(2-Carbamoyl-2-mercaptoethyl)-2-methoxy-N-(4-trifluoromethylbenzyl)benzamide] | 159 to 161 °C
10 | COc1ccc(CC(C(=O)O)S(C)(=O)=O)cc1C(=O)NCc1ccc(C(F)(F)F)cc1 (stereo not shown) [Example 9, 3-[4-Methoxy-3-[N-(4-trifluoromethylbenzyl)]carbamoylphenyl]-2-(methylsulfonyl)propionic acid] | 158 to 159 °C
